Test results as given in patent US12264134B2 (Merck Sharp & Dohme LLC, priority 2018, dated 2025).

Molecular target: IDO1 (Homo sapiens, UniProt P14902)
Assay: IDO1 Cellular Assay in HeLa Cells Stimulated with IFNγ
Assay type: cell-based
Conditions: read-out: HeLa Cell Potency, IC50

Chain of IDO1 (P14902 whole entry): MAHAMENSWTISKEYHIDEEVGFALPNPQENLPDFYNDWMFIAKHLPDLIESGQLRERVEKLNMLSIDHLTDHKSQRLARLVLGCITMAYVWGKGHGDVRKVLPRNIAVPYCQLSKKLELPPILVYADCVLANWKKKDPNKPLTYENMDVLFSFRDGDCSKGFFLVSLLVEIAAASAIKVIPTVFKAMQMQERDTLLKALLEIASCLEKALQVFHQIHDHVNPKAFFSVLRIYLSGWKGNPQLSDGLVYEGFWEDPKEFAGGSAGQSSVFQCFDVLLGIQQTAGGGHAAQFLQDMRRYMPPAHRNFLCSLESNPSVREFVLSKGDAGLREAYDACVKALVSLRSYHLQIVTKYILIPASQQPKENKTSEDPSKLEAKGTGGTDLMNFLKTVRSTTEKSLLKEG

| Compound | IC50 |
| --- | --- |
| Cc1cccc(N2CCN(C(=O)Cn3nc(C(=O)N4CCC(CO)CC4)c4c3C[C@H]3C[C@@H]43)CC2)c1C [Example 249, 1-[4-(2,3-dimethylphenyl)piperazin-1-yl]-2-{(3bR,4aR)-3-[4-(hydroxymethyl)piperidine-1-carbonyl]-3b,4,4a,5-tetrahydro-1H-cyclopropa[3,4]cyclopenta[1,2-c]pyrazol-1-yl}ethan-1-one] | 0.00062 µM |
| Cc1c(C(F)F)cccc1N1CCN(C(=O)Cn2nc(C(=O)N3CCO[C@H](CO)C3)c3c2C[C@H]2C[C@@H]32)CC1 [Example 349, 1-(4-(3-(difluoromethyl)-2-methylphenyl)piperazin-1-yl)-2-((3bR,4aR)-3-((S)-2-(hydroxymethyl)morpholine-4-carbonyl)-3b,4,4a,5-tetrahydro-1H-cyclopropa[3,4]cyclopenta[1,2-c]pyrazol-1-yl)ethanone] | 0.00446 µM |
| C[C@@H]1CN(C(=O)c2nn(CC(=O)N3CCN(c4cc(F)ccc4F)CC3)c3c2CCC3)C[C@H](C)O1 [Example 76, 1-[4-(2,5-difluorophenyl)piperazin-1-yl]-2-{3-[(2R,6S)-2,6-dimethylmorpholine-4-carbonyl]-5,6-dihydrocyclopenta[c]pyrazol-1(4H)-yl}ethan-1-one] | 0.439 µM |
| Cc1cccc(N2CCN(C(=O)Cn3nc(C(=O)N4CCOCC4CO)c4c3C[C@H]3C[C@@H]43)CC2)c1C (stereo partly drawn) [Example 274, 1-[4-(2,3-dimethylphenyl)piperazin-1-yl]-2-{(3bR,4aR)-3-[3-(hydroxymethyl)morpholine-4-carbonyl]-3b,4,4a,5-tetrahydro-1H-cyclopropa[3,4]cyclopenta[1,2-c]pyrazol-1-yl}ethan-1-one] | 0.00637 µM |
| Cc1cccc(N2CCN(C(=O)Cn3nc(C(=O)N4C[C@@H](C)O[C@@H](C)C4)c4c3CC[C@H](C(F)(F)F)C4)CC2)c1C [Example 302, 2-[(5S)-3-[(2R,6S)-2,6-dimethylmorpholine-4-carbonyl]-5-(trifluoromethyl)-4,5,6,7-tetrahydro-1H-indazol-1-yl]-1-[4-(2,3-dimethylphenyl)piperazin-1-yl]ethan-1-one] | 0.0249 µM |
| Cc1c(C(F)F)cccc1N1CCN(C(=O)Cn2nc(C(=O)N3CCC(O)CC3)c3c2C[C@H]2C[C@@H]32)CC1 [Example 346, 1-(4-(3-(difluoromethyl)-2-methylphenyl)piperazin-1-yl)-2-((3bR,4aR)-3-(4-hydroxypiperidine-1-carbonyl)-3b,4,4a,5-tetahydro-1H-cyclopropa[3,4]cyclopenta[1,2-c]pyrazol-1-yl)ethanone] | 0.00086 µM |
| C[C@@H]1CN(C(=O)c2nn(CC(=O)N3CCN(c4cc(F)cc(F)c4F)CC3)c3c2CCC3)C[C@H](C)O1 [Example 30, 2-{3-[(2R,6S)-2,6-dimethylmorpholine-4-carbonyl]-5,6-dihydrocyclopenta[c]pyrazol-1(4H)-yl}-1-[4-(2,3,5-trifluorophenyl)piperazin-1-yl]ethan-1-one] | 0.474 µM |
| C[C@@H]1CN(C(=O)c2nn(CC(=O)N3CCN(c4cc(F)c(F)cc4F)CC3)c3c2CCC3)C[C@H](C)O1 [Example 74, 2-{3-[(2R,6S)-2,6-dimethylmorpholine-4-carbonyl]-5,6-dihydrocyclopenta[c]pyrazol-1(4H)-yl}-1-[4-(2,4,5-trifluorophenyl)piperazin-1-yl]ethan-1-one] | 0.289 µM |
| Cc1c(Cl)cccc1N1CCN(C(=O)Cn2nc(C(=O)N3CCN(C(=O)CO)CC3)c3c2CCC(F)C3)CC1 (centres unmarked) [Example 376, 1-(4-(3-chloro-2-methylphenyl)piperazin-1-yl)-2-(5-fluoro-3-(4-(2-hydroxyacetyl)piperazine-1-carbonyl)-4,5,6,7-tetrahydro-1H-indazol-1-yl)ethan-1-one] | 0.014 µM |
| Cc1cccc(N2CCN(C(=O)Cn3nc(C(=O)N4CCC5(CC4)CC(=O)N(C)C5)c4c3CCC4)CC2)c1C [Example 121, 8-(1-{2-[4-(2,3-dimethylphenyl)piperazin-1-yl]-2-oxoethyl}-1,4,5,6-tetrahydrocyclopenta[c]pyrazole-3-carbonyl)-2-methyl-2,8-diazaspiro[4.5]decan-3-one] | 0.0171 µM |
| Cc1cccc(N2CCN(C(=O)Cn3nc(C(=O)N4CCC(NC(N)=O)CC4)c4c3C[C@H]3C[C@@H]43)CC2)c1C [Example 255, N-{1-[(3bR,4aR)-1-{2-[4-(2,3-dimethylphenyl)piperazin-1-yl]-2-oxoethyl}-3b,4,4a,5-tetrahydro-1H-cyclopropa[3,4]cyclopenta[1,2-c]pyrazole-3-carbonyl]piperidin-4-yl}urea] | 0.0131 µM |
| Cc1cccc(N2CCN(C(=O)Cn3nc(C(=O)N4CCCC4)c4c3CC(C)(C)CC4)CC2)c1C [Example 3, 1-[4-(2,3-dimethylphenyl)piperazin-1-yl]-2-[6,6-dimethyl-3-(pyrrolidine-1-carbonyl)-5,7-dihydro-4H-indazol-1-yl]ethanone] | 0.13 µM |

Second part, the compound after the results:

| IC50 | Compound |
| --- | --- |
| 0.00662 µM | Cc1c(Cl)cccc1N1CCN(C(=O)Cn2nc(C(=O)N3CC[C@H](O)[C@H](F)C3)c3c2CCC(F)C3)CC1 (stereo partly drawn) [Example 369, 1-(4-(3-chloro-2-methylphenyl)piperazin-1-yl)-2-(5-fluoro-3-((3R,4S)-3-fluoro-4-hydroxypiperidine-1-carbonyl)-4,5,6,7-tetrahydro-1H-indazol-1-yl)ethan-1-one] |
| 0.0256 µM | Cc1cccc(N2CCN(C(=O)Cn3nc(C(=O)N4CCN(C(=O)CO)[C@H](C)C4)c4c3CCC4)CC2)c1C [Example 400, (R)-1-(4-(2,3-dimethylphenyl)piperazin-1-yl)-2-(3-(4-(2-hydroxyacetyl)-3-methylpiperazine-1-carbonyl)-5,6-dihydrocyclopenta[c]pyrazol-1(4H)-yl)ethanone] |
| 0.487 µM | C[C@@H]1CN(C(=O)c2nn(CC(=O)N3CCN(c4cccc(F)c4F)CC3)c3c2CCC3)C[C@H](C)O1 [Example 35, 1-[4-(2,3-difluorophenyl)piperazin-1-yl]-2-{3-[(2R,6S)-2,6-dimethylmorpholine-4-carbonyl]-5,6-dihydrocyclopenta[c]pyrazol-1(4H)-yl}ethan-1-one] |
| 0.0252 µM | Cc1cccc(N2CCN(C(=O)Cn3nc(C(=O)N4CCN(C(C)C)CC4)c4c3CCC4)CC2)c1C [Example 159, 1-[4-(2,3-dimethylphenyl)piperazin-1-yl]-2-{3-[4-(propan-2-yl)piperazine-1-carbonyl]-5,6-dihydrocyclopenta[c]pyrazol-1(4H)-yl}ethan-1-one] |
| 0.00327 µM | Cc1cccc(N2CCN(C(=O)Cn3nc(C(=O)N4CCN5CCCC[C@@H]5C4)c4c3C[C@H]3C[C@@H]43)CC2)c1C [Example 246, 1-[4-(2,3-dimethylphenyl)piperazin-1-yl]-2-{(3bR,4aR)-3-[(9aR)-octahydro-2H-pyrido[1,2-a]pyrazine-2-carbonyl]-3b,4,4a,5-tetrahydro-1H-cyclopropa[3,4]cyclopenta[1,2-c]pyrazol-1-yl}ethan-1-one] |
| 0.00453 µM | Cc1cccc(N2CCN(C(=O)Cn3nc(C(=O)N4CCC(O)(C(F)(F)F)CC4)c4c3CCC4)CC2)c1C [Example 189, 1-[4-(2,3-dimethylphenyl)piperazin-1-yl]-2-{3-[4-hydroxy-4-(trifluoromethyl)piperidine-1-carbonyl]-5,6-dihydrocyclopenta[c]pyrazol-1(4H)-yl}ethan-1-one] |
| 0.0106 µM | Cc1cccc(N2CCN(C(=O)Cn3nc(C(=O)N4CCC(O)(CF)CC4)c4c3CCC4)CC2)c1C [Example 481, 1-(4-(2,3-dimethylphenyl)piperazin-1-yl)-2-(3-(4-(fluoromethyl)-4-hydroxypiperidine-1-carbonyl)-5,6-dihydrocyclopenta[c]pyrazol-1(4H)-yl) ethanone] |
| 0.0896 µM | Cc1cccc(N2CCN(C(=O)Cn3nc(C(=O)N4CC[C@@H](N)[C@@H](C)C4)c4c3CCC4)CC2)c1C [Example 198, 2-{3-[(3S,4R)-4-amino-3-methylpiperidine-1-carbonyl]-5,6-dihydrocyclopenta[c]pyrazol-1(4H)-yl}-1-[4-(2,3-dimethylphenyl)piperazin-1-yl]ethan-1-one] |
| 1.59 µM | O=C(Cn1nc(C(=O)N2CC[C@H](O)[C@H](F)C2)c2c1CCC2)N1CCN(C2CCc3ccccc32)CC1 (mixture of isomers) [Example 438, 1-(4-(2,3-dihydro-1H-inden-1-yl)piperazin-1-yl)-2-(3-((3R,4S)-3-fluoro-4-hydroxypiperidine-1-carbonyl)-5,6-dihydrocyclopenta[c]pyrazol-1(4H)-yl)ethanone] |
| 0.0124 µM | Cc1cccc(N2CCN(C(=O)Cn3nc(C(=O)N4CC[C@@H](O)[C@@H](F)C4)c4c3CCC4)CC2)c1C [Example 98, 1-[4-(2,3-dimethylphenyl)piperazin-1-yl]-2-{3-[(3S,4R)-3-fluoro-4-hydroxypiperidine-1-carbonyl]-5,6-dihydrocyclopenta[c]pyrazol-1(4H)-yl}ethan-1-one] |
| 0.117 µM | C[C@@H]1CN(C(=O)c2nn(CC(=O)N3CCN(c4cccc(F)c4Cl)CC3)c3c2CCC3)C[C@H](C)O1 [Example 32, 1-[4-(2-chloro-3-fluorophenyl)piperazin-1-yl]-2-{3-[(2R,6S)-2,6-dimethylmorpholine-4-carbonyl]-5,6-dihydrocyclopenta[c]pyrazol-1(4H)-yl}ethan-1-one] |
| 0.206 µM | C[C@@H]1CN(C(=O)c2nn(CC(=O)N3CCN(c4cccc5c4CC5)CC3)c3c2CCC3)C[C@H](C)O1 [Example 446, 1-(4-(bicyclo[4.2.0]octa-1(6),2,4-trien-2-yl)piperazin-1-yl)-2-(3-((2R,6S)-2,6-dimethylmorpholine-4-carbonyl)-5,6-dihydrocyclopenta[c]pyrazol-1(4H)-yl)ethanone] |
| 0.372 µM | Cc1cccc(N2CCN(C(=O)Cn3nc(C(=O)N4CCC(O)(CN(C)C)CC4)c4c3CCC4)CC2)c1C [Example 113, 2-[3-{4-[(dimethylamino)methyl]-4-hydroxypiperidine-1-carbonyl}-5,6-dihydrocyclopenta[c]pyrazol-1(4H)-yl]-1-[4-(2,3-dimethylphenyl)piperazin-1-yl]ethan-1-one] |
| 0.12 µM | CC(=O)NC1CCCN(C(=O)c2nn(CC(=O)N3CCN(c4cccc(C)c4C)CC3)c3c2CCC3)C1 (centres unmarked) [Example 185, N-[1-(1-{2-[4-(2,3-dimethylphenyl)piperazin-1-yl]-2-oxoethyl}-1,4,5,6-tetrahydrocyclopenta[c]pyrazole-3-carbonyl)piperidin-3-yl]acetamide] |
